From patent publication US20240398732A1, “Treating Cancers with Combinations of Spironolactone and Acylfulvenes” (LANTERN PHARMA INC., priority 2021, published 2024) come the findings set out here.

The subject of data set [1] is ACHN (renal cell carcinoma cell line). The data set is described as follows: ACHN cell growth / survival in vitro. Type of data set: cell-based. As to conditions: 10 μM spironolactone alone.
Data set [2] has as its system CHLA-06 (atypical teratoid rhabdoid tumor cell line). The data set is described as follows: CHLA-06 cell growth / survival in vitro. The data set is classed as cell-based. The note with it: spironolactone alone (10 μM).
The test system of data set [3] is CAKI-2 (papillary renal cell carcinoma cell line). The data set is described as follows: CAKI-2 cell growth / survival in vitro. As to conditions: spironolactone alone. Type of data set: cell-based.
In data set [4] the test system is RPMI 8226 human myeloma cell lines. The data set is described as follows: RPMI 8226 cell growth / cytotoxicity in vitro. The data set is classed as cell-based.
For data set [5], the system named is subcutaneous U87 xenograft tumors. The data set is described as follows: Subcutaneous U87 xenograft in SCID mice. The note with it: Spironolactone 25 mg/kg i.p. 5 days per week from day 8; LP-184 4 mg/kg i.v. every other day for 4 doses from day 9.
Experimental: (§1) SCID mice bearing pre-established subcutaneous U87 xenograft tumors were treated with Spironolactone alone, LP-184 alone or their combination. Spironolactone treatment began on post implantation day 8 at 25 mg/kg intraperitoneally 5 days per week, and LP-184 on day 9 at 4 mg/kg intravenously every other day for 4 doses.
The next data set concerns the target T1, ERCC3 (Homo sapiens, UniProt P19447).
T1 construct: endogenous in cells; host or cells: M1123, Mayo39, U87 glioblastoma cell lines
T1 sequence (P19447 1-782): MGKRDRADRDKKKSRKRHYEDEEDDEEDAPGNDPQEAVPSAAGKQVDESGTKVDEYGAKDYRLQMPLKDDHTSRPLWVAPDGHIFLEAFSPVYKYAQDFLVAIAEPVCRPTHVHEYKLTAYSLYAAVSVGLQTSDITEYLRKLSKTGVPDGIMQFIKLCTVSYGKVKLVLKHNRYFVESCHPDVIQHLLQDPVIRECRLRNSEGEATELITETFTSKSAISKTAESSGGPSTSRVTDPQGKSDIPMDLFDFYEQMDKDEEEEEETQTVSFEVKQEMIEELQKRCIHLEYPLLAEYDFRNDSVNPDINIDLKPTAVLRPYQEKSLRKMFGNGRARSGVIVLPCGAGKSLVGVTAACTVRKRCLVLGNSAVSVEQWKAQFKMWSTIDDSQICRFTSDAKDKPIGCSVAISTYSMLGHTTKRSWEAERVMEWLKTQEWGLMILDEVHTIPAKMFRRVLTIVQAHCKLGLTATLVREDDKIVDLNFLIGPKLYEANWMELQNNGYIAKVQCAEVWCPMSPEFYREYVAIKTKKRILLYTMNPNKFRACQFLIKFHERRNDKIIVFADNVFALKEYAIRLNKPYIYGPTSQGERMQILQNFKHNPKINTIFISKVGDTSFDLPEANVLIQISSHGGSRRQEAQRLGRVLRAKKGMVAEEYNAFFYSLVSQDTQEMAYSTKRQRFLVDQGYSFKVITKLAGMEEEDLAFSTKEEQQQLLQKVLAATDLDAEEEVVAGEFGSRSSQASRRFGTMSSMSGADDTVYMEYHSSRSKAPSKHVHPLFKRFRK
The data set is described as follows: ERCC3 western blot in glioblastoma cell lines. Type of data set: cell-based. The note with it: 10 μM spironolactone, over 24-72 hours. As to the method: Representative images show quantification of ERCC3 western blot intensity with significant Spironolactone-mediated ERCC3 downregulation over 24-72 hours in different glioblastoma cell lines.
A general note: In western blotting, separated proteins are transferred to a membrane and probed.

For data set [6], the system named is U87 (glioblastoma cell line). The data set is described as follows: U87 cell growth / survival / viability in vitro. Type of data set: cell-based. The note with it: for IC50: Homo sapiens, U-87 MG.
Data set [7] relates to 22RV1 (prostate cell line). The data set is described as follows: 22RV1 cell growth / survival in vitro. As to conditions: 10 μM spironolactone alone. Type of data set: cell-based.
Data set [8] concerns subcutaneous U87 xenograft tumors. The note with it: beginning on ~day 25.
Experimental: as §1
The test system of data set [9] is M1123 (glioblastoma cell line). The data set is described as follows: M1123 cell viability in vitro. The data set is classed as cell-based.
Data set [10] concerns U87, M1123 and Mayo39 glioblastoma cultures. The data set is described as follows: GBM cell viability, pooled statement on IC50 shift. As to conditions: with 5 μM Spironolactone. Type of data set: cell-based.
For data set [11], the system named is Mayo39 (Glioblastoma cell line). The data set is described as follows: Mayo39 cell viability in vitro. Type of data set: cell-based.
Setting [12] is: LP-184 alone, read-out: LP-184 alone IC50 [mean value.
Setting [13] is: with 5 uM Spironolactone, read-out: LP-184 IC50 [mean value, nM] in combination with 5 uM Spironolactone.

“Also recorded” adds a separate entry of the source. Like-named read-outs stand apart in the source and are kept apart here.

As for `CC(=O)SC1CC2=CC(=O)CCC2(C)C2CCC3(C)C(CCC34CCC(=O)O4)C12` (stereo not drawn) [Spironolactone, 7α-Acetylthiospirolactone], the cell growth rates entry in [1] and in [7] was “did not change the cell growth rates” throughout. Besides, the results for the growth rates result in data set [2], in data set [3] and in data set [6] (spironolactone alone) were “did not substantially change the growth rates; also recorded: did not change the cell growth rates”, “did not substantially change the growth rates” and “did not substantially change the growth rates”, respectively. Further, the cytotoxicity result in data set [4] (10 μM spironolactone treatment alone) is “did not cause cytotoxicity”. In data set [5], the “tumor growth / tumor regression” value is given as “no effect on tumor growth”. The “ERCC3 protein level (western blot)” value on ERCC3 (M1123), on ERCC3 (Mayo39) and at ERCC3 (U87) was “time-dependent depletion” each time.

Broadly, the IC50 is the concentration at which inhibition is half-maximal. Take `CC1=C(CN(O)C(N)=O)C2=C(C)C3(CC3)[C@@](C)(O)C(=O)C2=C1` [LP-184, (−)-hydroxyureamethyl acylfulvene]: the “tumor regrowth (animals)” value in data set [8] is recorded as 5/5. Moreover, the IC50 in data set [9] (setting [12]) was 151 nM; in data set [9] (setting [13]) it was 39.7 nM; in [11] (setting [12]), 313 nM; in data set [11] (setting [13]), 94.3 nM; in [6] (setting [12]), 250 nM; in data set [6] (setting [13]), 37.6 nM. The “decrease in LP-184 IC50s” value in [10] was 3-6 fold. Besides, the “tumor growth / tumor regression” value in data set [5] is given as “complete or near complete tumor regression”.

For `CC1=C(CN(O)C(N)=O)C2=C(C)C3(CC3)[C@](C)(O)C(=O)C2=C1` [LP-284, (+)-hydroxyureamethyl acylfulvene], the “reduction of LP-284 IC50” value in [4] (by 10 μM spironolactone) came to 2.4 fold.
